Results from ChEMBL document CHEMBL5150032, “Sunitinib-based Proteolysis Targeting Chimeras (PROTACs) reduced the protein levels of FLT-3 and c-KIT in leukemia cell lines” (Bioorg Med Chem Lett, 2022).
Activity calls are given as the source filed them. The rule behind the calls is not given here. Residues, ends and D or L forms follow the SMILES beside them. *: point of attachment. Cbz = O=C(OCc1ccccc1)*

Legend:
[1] = tested on: K562; assay: Antiproliferative activity against human K562 cells assessed as inhibition of cell growth incubated for 48 hrs by CCK-8 assay; format: functional, cell-based; conditions: K562, 48 h
[2] = target: T1, von Hippel-Lindau disease tumor suppressor/Receptor-type tyrosine-protein kinase FLT3 (Homo sapiens) (UniProt P36888+P40337); assay: PROTAC activity at VHL/FLT-3 in human HL-60 cells assessed as reduction in FLT-3 protein level at 10 uM by Western blot analysis; format: cell-based; conditions: time 4-48 hrs, TDE = time-dependent effect
[3] = tested on: A498; assay: Antiproliferative activity against human A498 cells assessed as reduction in cell viability at 20 uM incubated for 24 hrs by CCK-8 assay; format: functional, cell-based
[4] = target: T1, von Hippel-Lindau disease tumor suppressor/Receptor-type tyrosine-protein kinase FLT3 (Homo sapiens); assay: PROTAC activity at VHL/FLT-3 in human HL-60 cells assessed as reduction in FLT-3 protein level at 20 uM preincubated with MG-132 for 1 hrs followed by compound addition and measured after for 48 hrs by Western blot analysis; format: cell-based
[5] = tested on: HL-60; assay: Antiproliferative activity against human HL-60 cells assessed as reduction in cell viability at 20 uM incubated for 24 hrs by CCK-8 assay; format: functional, cell-based
[6] = target: T2, von Hippel-Lindau disease tumor suppressor/Mast/stem cell growth factor receptor Kit (Homo sapiens) (UniProt P10721+P40337); assay: PROTAC activity at VHL/c-KIT in human HL-60 cells assessed as reduction in c-KIT protein level at >10 uM measured at 24 to 48 hrs by Western blot analysis; format: cell-based; conditions: time 24-48 hrs
[7] = target: T1, von Hippel-Lindau disease tumor suppressor/Receptor-type tyrosine-protein kinase FLT3 (Homo sapiens); assay: PROTAC activity at VHL/FLT-3 in human HL-60 cells assessed as reduction in FLT-3 protein level at 20 uM incubated for 24 hrs by Western blot analysis; format: cell-based
[8] = tested on: A498; assay: Antiproliferative activity against human A498 cells assessed as inhibition of cell growth incubated for 48 hrs by CCK-8 assay; format: functional, cell-based; conditions: A498, 48 h
[9] = target: T1, von Hippel-Lindau disease tumor suppressor/Receptor-type tyrosine-protein kinase FLT3 (Homo sapiens); assay: PROTAC activity at VHL/FLT-3 in human HL-60 cells assessed as reduction in FLT-3 protein level at 10 to 20 uM incubated for 48 hrs by Western blot analysis; format: cell-based; conditions: dose 10-20 µM
[10] = target: T1, von Hippel-Lindau disease tumor suppressor/Receptor-type tyrosine-protein kinase FLT3 (Homo sapiens); assay: PROTAC activity at VHL/FLT-3 in human HL-60 cells assessed as reduction in FLT-3 protein level at 10 uM incubated for 12 hrs by Western blot analysis; format: cell-based
[11] = target: T1, von Hippel-Lindau disease tumor suppressor/Receptor-type tyrosine-protein kinase FLT3 (Homo sapiens); assay: PROTAC activity at VHL/FLT-3 in human K562 cells assessed as reduction in FLT-3 protein level at 20 uM incubated for 48 hrs by Western blot analysis; format: cell-based
[12] = target: T2, von Hippel-Lindau disease tumor suppressor/Mast/stem cell growth factor receptor Kit (Homo sapiens); assay: PROTAC activity at VHL/c-KIT in human HL-60 cells assessed as reduction in c-KIT protein level at 20 uM preincubated with VHL032 for 1 hrs followed by compound addition and measured after for 48 hrs by Western blot analysis; format: cell-based
[13] = tested on: HL-60; assay: Antiproliferative activity against human HL-60 cells assessed as inhibition of cell growth incubated for 48 hrs by CCK-8 assay; format: functional, cell-based; conditions: HL-60, 48 h
[14] = Cytotoxicity against human NCM460 cells assessed as inhibition of cell growth; format: toxicity, cell-based
[15] = tested on: K562; assay: Antiproliferative activity against human K562 cells assessed as reduction in cell viability at 20 uM incubated for 24 hrs by CCK-8 assay; format: functional, cell-based
[16] = target: T1, von Hippel-Lindau disease tumor suppressor/Receptor-type tyrosine-protein kinase FLT3 (Homo sapiens); assay: PROTAC activity at VHL/FLT-3 in human HL-60 cells assessed as reduction in FLT-3 protein level at 1 uM incubated for 1 hrs by Western blot analysis; format: cell-based

T1 sequence (P36888 27-993 limits assumed): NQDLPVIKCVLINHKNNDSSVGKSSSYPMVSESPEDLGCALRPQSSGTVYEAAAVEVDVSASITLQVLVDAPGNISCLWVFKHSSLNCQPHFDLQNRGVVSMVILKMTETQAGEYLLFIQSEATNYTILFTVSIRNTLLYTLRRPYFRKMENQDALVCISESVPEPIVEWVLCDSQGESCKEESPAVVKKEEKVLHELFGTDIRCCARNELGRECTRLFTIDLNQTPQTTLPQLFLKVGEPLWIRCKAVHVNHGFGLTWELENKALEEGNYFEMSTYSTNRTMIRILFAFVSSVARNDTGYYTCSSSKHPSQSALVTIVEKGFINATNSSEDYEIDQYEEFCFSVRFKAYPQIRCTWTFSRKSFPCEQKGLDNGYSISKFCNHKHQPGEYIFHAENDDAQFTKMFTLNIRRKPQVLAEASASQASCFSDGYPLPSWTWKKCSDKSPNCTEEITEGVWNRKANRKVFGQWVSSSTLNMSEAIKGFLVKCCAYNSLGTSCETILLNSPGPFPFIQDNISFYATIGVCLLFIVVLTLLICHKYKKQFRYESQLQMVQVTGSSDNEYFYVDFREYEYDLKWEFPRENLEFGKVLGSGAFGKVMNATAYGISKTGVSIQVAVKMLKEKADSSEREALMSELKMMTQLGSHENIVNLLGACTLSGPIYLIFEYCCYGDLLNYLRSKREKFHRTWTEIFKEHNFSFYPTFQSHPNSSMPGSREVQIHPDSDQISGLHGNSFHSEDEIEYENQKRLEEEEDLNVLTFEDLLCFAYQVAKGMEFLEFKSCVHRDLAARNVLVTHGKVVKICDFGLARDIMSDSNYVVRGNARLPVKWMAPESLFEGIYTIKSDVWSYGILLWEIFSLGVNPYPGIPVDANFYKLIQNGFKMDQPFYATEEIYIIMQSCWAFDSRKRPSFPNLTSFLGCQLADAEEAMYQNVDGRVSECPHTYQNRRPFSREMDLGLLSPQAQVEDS
T1 sequence (P40337 whole entry partner): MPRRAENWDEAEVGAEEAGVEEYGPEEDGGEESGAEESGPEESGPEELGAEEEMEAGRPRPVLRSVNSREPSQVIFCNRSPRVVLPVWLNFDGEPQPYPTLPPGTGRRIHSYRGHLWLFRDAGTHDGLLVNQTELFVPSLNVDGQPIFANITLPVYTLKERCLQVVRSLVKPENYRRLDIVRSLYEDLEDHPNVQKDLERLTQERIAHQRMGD
T2 sequence (P10721 whole entry, looked up): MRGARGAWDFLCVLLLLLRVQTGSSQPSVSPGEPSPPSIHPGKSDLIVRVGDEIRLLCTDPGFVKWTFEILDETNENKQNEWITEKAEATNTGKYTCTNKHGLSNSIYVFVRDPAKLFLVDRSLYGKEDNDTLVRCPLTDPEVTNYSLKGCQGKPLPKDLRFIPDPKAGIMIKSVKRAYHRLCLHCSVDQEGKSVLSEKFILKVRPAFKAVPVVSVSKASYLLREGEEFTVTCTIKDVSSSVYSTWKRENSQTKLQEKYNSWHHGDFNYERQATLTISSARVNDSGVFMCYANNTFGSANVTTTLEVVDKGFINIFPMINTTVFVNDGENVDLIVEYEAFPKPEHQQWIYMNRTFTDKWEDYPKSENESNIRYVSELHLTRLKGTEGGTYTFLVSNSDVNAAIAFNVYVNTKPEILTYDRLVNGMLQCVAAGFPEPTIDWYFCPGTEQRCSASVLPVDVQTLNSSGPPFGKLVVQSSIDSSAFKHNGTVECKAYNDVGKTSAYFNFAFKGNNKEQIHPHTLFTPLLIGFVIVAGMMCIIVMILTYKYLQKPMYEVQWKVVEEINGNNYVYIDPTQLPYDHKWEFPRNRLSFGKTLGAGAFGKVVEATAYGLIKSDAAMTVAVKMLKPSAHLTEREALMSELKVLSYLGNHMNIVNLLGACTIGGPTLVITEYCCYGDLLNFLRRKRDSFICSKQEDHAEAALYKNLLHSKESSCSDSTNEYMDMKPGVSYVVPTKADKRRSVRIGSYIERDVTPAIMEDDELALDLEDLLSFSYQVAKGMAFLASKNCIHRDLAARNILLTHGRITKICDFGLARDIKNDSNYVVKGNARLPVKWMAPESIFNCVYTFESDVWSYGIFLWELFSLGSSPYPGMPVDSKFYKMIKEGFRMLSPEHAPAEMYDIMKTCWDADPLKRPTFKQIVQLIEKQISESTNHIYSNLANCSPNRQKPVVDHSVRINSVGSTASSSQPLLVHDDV
T2 sequence (P40337 whole entry, looked up): as the sequence (P40337 whole entry partner) above

Row | SMILES | IC50 [1] [µM] | Activity [2] | Activity [4] | Activity [6] | Activity [7] | Activity [9] | Activity [10] | Activity [11] | Activity [12] | IC50 [13] [µM] | Activity [16] | Activity [3] | Activity [5] | IC50 [8] [µM] | IC50 [14] [µM] | Activity [15]
1 | Cc1ncsc1-c1ccc(CNC(=O)[C@@H]2C[C@@H](O)CN2C(=O)[C@@H](NC(=O)COCCOCCNC(=O)c2c(C)[nH]c(/C=C3\C(=O)Nc4ccc(F)cc43)c2C)C(C)(C)C)cc1 | 11.6 | Tde | Active | Active | Active | Active | Active | Active | Active | 2.9 | – | Active | Active | 13.1 | > 100 | Active
2 | CC(C)C[C@@H](C=O)NC(=O)[C@H](CC(C)C)NC(=O)[C@H](CC(C)C)NC(=O)OCc1ccccc1 (Cbz-Leu-Leu-Leu-aldehyde) | – | – | – | – | – | – | – | – | – | – | Active | – | – | – | – | –
3 | Cc1ncsc1-c1ccc(CNC(=O)[C@@H]2C[C@@H](O)CN2C(=O)[C@@H](NC(=O)COCCOCCOCCNC(=O)c2c(C)[nH]c(/C=C3\C(=O)Nc4ccc(F)cc43)c2C)C(C)(C)C)cc1 | 15.2 | – | – | – | – | – | – | – | – | 12.7 | – | – | – | 18.1 | – | –

Further lines, with some results ahead:

Row | IC50 [1] [µM] | Activity [2] | Activity [4] | Activity [6] | Activity [7] | Activity [9] | Activity [10] | Activity [11] | Activity [12] | IC50 [13] [µM] | Activity [16] | SMILES | Activity [3] | Activity [5] | IC50 [8] [µM] | IC50 [14] [µM] | Activity [15]
4 | 8.4 | – | – | – | – | – | – | Active | – | 36.5 | – | CCN(CCNC(=O)c1c(C)[nH]c(/C=C2\C(=O)Nc3ccc(F)cc32)c1C)CC(=O)N[C@H](C(=O)N1C[C@H](O)C[C@H]1C(=O)NCc1ccc(-c2scnc2C)cc1)C(C)(C)C | Active | Active | 26.5 | > 100 | Active
5 | 5.8 | – | – | – | – | – | – | – | – | 8.7 | – | CCN(CC)CCNC(=O)c1c(C)[nH]c(/C=C2\C(=O)Nc3ccc(F)cc32)c1C [SUNITINIB] | – | – | 1.2 | – | –
